Source: US8557516B2, “AKT tyrosine 176 phosphorylation cancer biomarker” (H. Lee Moffitt Cancer Center and Research Institute, Inc., priority 2009, dated 2013)

System: AKT Tyr176-phosphorylation
Test: Cell fractionation and immunoblotting of pTyr176-AKT in MCF-7 cells
Assay type: cell-based, human
Conditions: MCF-7 cells serum starved 24 h; insulin 50 ng/ml or heregulin 30 ng/ml
Method: (§1) FIG. 27 is a blot showing Tyr176-phosphorylation regulates AKT plasma membrane localization. MCF-7 cells were serum starved (24 h) and treated with insulin (50 ng/ml) or for indicated times. Cell lysates were fractionated and IB with the indicated antibodies. Input panels pAck1 (Tyr), pIR(Tyr) and pHER-2(Tyr) represents IP with respective antibodies followed by IB with pTyr antibodies.
as §1, with “28” for “27”, “(C) heregulin (30” for “with insulin (50”, “ng/ml)” for “ng/ml) or”
FIG. 29 is a blot showing Tyr176-phosphorylation regulates AKT plasma membrane localization. MCF7 cells were transfected with control or Ack1-specific siRNAs (40 nM) for 48 h and treated with heregulin for 40 mins. Cell lysates were fractionated and IB with indicated antibodies.
FIG. 34 is a blot showing Tyr176-phosphorylation of AKT is PI3K-independent. MCF-7 cells were pretreated with LY294002 (10 μM, 1 h) followed by heregulin for 40 mins. Cell lysates were fractionated and membrane fraction was subjected to IB with indicated antibodies.
Cell fractionation, immunoprecipitations and kinase assay. […]

Substance	time of optimal AKT Tyr-176 phosphorylation and plasma membrane accumulation [min]
heregulin	40
insulin: growth factor ligand used to stimulate cells	30
